Results taken from patent US9089850B2, “Method and apparatus for separation of pharmaceutical materials on the basis of their density” (Syracuse University, priority 2009, dated 2015).
Like-named read-outs stand apart in the source and are kept apart here.

Key:
[1] = Density gradient analysis of fresh, quickly crystallized sulfathiazole samples; format: physicochemical; conditions: relative amount of form in density gradient; benzene/chloroform to tetrachloroethylene gradient
Description: Our density gradient methodology is a refinement and extension to the pharmaceutical industry of existing well-established methodologies in other fields. [Bomstein & Steberl, 1959; Kind & Summerscales, 1966; US 2004/6,709,871 B2; Richards, 1999; ASTM D 1505-98; ISO 1183-2:2004; Yanagi, 2010; Doom, 2010; Chernov, 2009a.b; Moshammer, 2009; Fleurier, 2009; Kato, 2009; Deng, 2008, 2009; Park, 2008; Lu, 2006; Hersam, 2006]. A density gradient is made with a “gradient maker” consisting of two chambers connected through a stopcock and with a second stopcock on one of the containers to an outflow tube. A mixer is used in the outflow chamber.
We have developed this technique to optimize reliability and visibility of the resulting separated materials. In particular, we have created a device that permits the formation of identical gradients in one overall unobstructed container (see FIG. 3 and FIG. 4). These columns are at the outer wall of the overall cylindrical container. A central black column permits viewing of the materials in each column individually. The tubes that will contain the samples of crystalline material are open at the bottom; the gradient maker fills all columns simultaneously forming identical gradients.
A density gradient was prepared in the device described above using a mixture of benzene and chloroform (ρ=1.32 g/cm^3) as one liquid and tetrachloroethylene (ρ=1.62 g/cm^3) as the other.
Fresh crystalline samples of solid sulfathiazole were prepared by crystallizing about 50 mg of sulfathiazole (Sigma-Aldrich lot 028K1522) from water, methanol, ethanol, isopropanol and n-butanol by dissolving them at about 55° C. and then cooling to ambient temperature to form crystals at which point material was harvested. All materials were made at the same time, isolated within an hour of each other and dried with a stream of argon gas.
Based on the density gradient analysis, this rapid crystallization gives from water a mixture of forms III and IV in about equal amount, from both methanol and ethanol form II and III, from isopropanol a mixture of forms I, II and III and from n-butanol form I. The bands for this last material are distinctly more compact than those of the other forms.
One of the major benefits of the gradient method is that it provides an immediate visual report of the number of materials in an API preparation. A qualitative interpretation of the relative amounts of components in the gradient is easily made. A more quantitative estimate could be obtained by a simple light scattering analysis with simple added apparatus that performs either transmission or 90 degree scattering measurements. Calibration of the light scattering signal as a function of the amount of API could be performed using a sample in a very steep gradient (and thus not separated). This would make this a semi-quantitative method.

[2] = polymorphic form expected for the crystallization solvent, previous work [Parmar, 2007]; cited from earlier work
[3] = cited from earlier work
[4] = Seeding experiment in n-propanol with flotation density test; format: physicochemical; conditions: crystals slowly grown in n-propanol at ambient temperature, seeded with material of form III density
Description: Parmar, 2007 states that crystallization from n-propanol yields form I and that that form is stable in this solvent. In a seeding experiment we harvested material that was the right density for form III and used this to seed crystallization in n-propanol. The resulting crystals, slowly grown at ambient temperature, are not consistent with form I or form III, but are consistent with form II. The density by a flotation density test indicates this material to be form II. The observation that form II is obtained in this case is quite probably due to the presence of a small amount of form II in the predominantly form III sample. […] That is not the case with our seed crystals.

SMILES | Form II [1] | Form III [1] | Form IV [1] | Expected [23] [2] | further results
Nc1ccc(S(=O)(=O)Nc2nccs2)cc1 [Tube A, sulfathiazole] | minor | major | major | Form IV | 
Nc1ccc(S(=O)(=O)Nc2nccs2)cc1 [Tube B, sulfathiazole] | major | major | minor | Form II | 
Nc1ccc(S(=O)(=O)Nc2nccs2)cc1 [Tube E, sulfathiazole] |  |  |  | Form I | Form I [1]: major
Nc1ccc(S(=O)(=O)Nc2nccs2)cc1 [form I, sulfathiazole] |  |  |  |  | density ([3]; single crystal x-ray results [Blagden, 1998], listed as I): 1.500
Nc1ccc(S(=O)(=O)Nc2nccs2)cc1 [form II, sulfathiazole] |  |  |  |  | density ([3]; single crystal x-ray results [Blagden, 1998], listed as II): 1.551
Nc1ccc(S(=O)(=O)Nc2nccs2)cc1 [form III, sulfathiazole] |  |  |  |  | density ([3]; single crystal x-ray results [Blagden, 1998], listed as III): 1.569
Nc1ccc(S(=O)(=O)Nc2nccs2)cc1 [form IV, sulfathiazole] |  |  |  |  | density ([3]; single crystal x-ray results [Blagden, 1998], listed as IV): 1.595
Nc1ccc(S(=O)(=O)Nc2nccs2)cc1 [form V, sulfathiazole] |  |  |  |  | density ([3]; synchrotron x-ray powder diffraction study [Chan, 1999]): 1.484
Nc1ccc(S(=O)(=O)Nc2nccs2)cc1 [sulfathiazole] |  |  |  |  | polymorphic form by flotation density test [4]: form II

The next lines start with results.

Form II [1] | Form III [1] | Form IV [1] | SMILES | Expected [23] [2] | further results
major | major | minor | Nc1ccc(S(=O)(=O)Nc2nccs2)cc1 [Tube C, sulfathiazole] | Form IV | 
major | minor | very | Nc1ccc(S(=O)(=O)Nc2nccs2)cc1 [Tube D, sulfathiazole] | Form III | Form I [1]: very
